Test results taken from patent US9994548B2, “Phenyl-substituted nicotinic ligands, and methods of use thereof” (Georgetown University, priority 2011, dated 2018).
Entries after “also recorded” stand apart in the source; their conditions may differ.

What was measured:
5-HT3 receptors = target: T1, 5-HT3 receptors (Homo sapiens, UniProt P46098); test: NIMH PDSP primary binding assay; details: 10 μM
T1 sequence (P46098 24-478): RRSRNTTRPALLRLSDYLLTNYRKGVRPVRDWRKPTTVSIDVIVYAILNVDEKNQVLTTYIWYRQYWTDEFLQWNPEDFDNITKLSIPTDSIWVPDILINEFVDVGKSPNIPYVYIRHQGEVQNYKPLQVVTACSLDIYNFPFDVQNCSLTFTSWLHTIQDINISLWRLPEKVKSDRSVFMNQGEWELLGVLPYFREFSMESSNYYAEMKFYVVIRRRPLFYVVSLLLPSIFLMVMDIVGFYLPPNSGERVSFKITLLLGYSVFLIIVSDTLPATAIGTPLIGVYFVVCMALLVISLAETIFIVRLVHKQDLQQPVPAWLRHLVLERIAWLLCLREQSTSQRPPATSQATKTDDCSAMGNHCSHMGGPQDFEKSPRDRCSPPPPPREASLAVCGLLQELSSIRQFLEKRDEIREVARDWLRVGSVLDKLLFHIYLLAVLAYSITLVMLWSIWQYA
Procedure: (§1) All binding assays for targets other than nAChRs were performed by the National Institute of Mental Health's Psychoactive Drug Screening Program (PDSP) supported by NIMH grant HHSN-271-2008-00025-C(PI: Bryan Roth). For experimental details (Ki determinations, receptor binding profiles, functional data, MDR1 data, etc. as appropriate) refer to the PDSP web site http://pdsp.med.unc.edu/.
The compound either is not a “hit” in primary binding assays, or showing at least 3,000-fold lower binding affinities than that for α4β2 nAChRs in secondary binding assays (FIG. 19,).

[1] = system: 41 other targets, including many CNS receptors and transporters; test: NIMH PDSP binding assays for targets other than nAChRs
Procedure: as §1
To determine affinities of the lead compound, VMY-2-95, for targets other than neuronal nAChRs, we tested VMY-2-95 in binding assays using 41 other targets, including many CNS receptors and transporters. […] The Ki values of VMY-2-95 at these 9 targets were determined by performing secondary binding assays using a series of concentrations of VMY-2-95. […] Furthermore, the binding affinity of VMY-2-95 for α4β2 nAChRs is at least 3,000 times higher than that for any of those 9 targets.

rat α3β4 nAChRs = target: T2, rat α3β4 nAChRs (Rattus norvegicus, UniProt P04757+P12392); test: 86Rb+ efflux assay in stably transfected cells; assay type: cell-based; details: 86Rb+ efflux, rat α3β4
T2 construct: expressed in transfected cells; host or cells: HEK 293 (KXα3β4R2)
Procedure: (§2) The cell line expressing rat α3β4 nAChRs, KXα3β4R2, was established previously by stably transfecting HEK 293 cells with combinations of rat nAChR α3 and β4 subunit genes. The cell line expressing human α4β2 nAChRs, YXα4β2H1, were established recently (Tuan et al., 2012, manuscript in preparation). These cell lines were maintained in minimum essential medium (MEM) supplemented with 10% fetal bovine serum, 100 units/mL penicillin G, […] streptomycin and selective antibiotics at 37° C. with 5% CO2 in a humidified incubator. Tissue culture medium and antibiotics were obtained from Invitrogen Corporation (Carlsbad, Calif.), unless otherwise stated. Fetal bovine serum and horse serum were provided by Gemini Bio-Products (Woodland, Calif.).
(§3) Functional properties of compounds at nAChRs expressed in the transfected cells were measured using ^86Rb^+ efflux assays as described previously. In brief, cells were plated into 24-well plates coated with poly-D-lysine. The plated cells were grown at 37° C. for 18 to 24 hour to reach 85-95% confluence. The cells were then incubated in growth medium (0.5 mL/well) containing ^86Rb^+ (2 μCi/mL) for 4 hour at 37° C. The loading mixture was then aspirated, and the cells were washed four times with 1 mL buffer (15 mM HEPES, 140 mM NaCl, 2 mM KCl, 1 mM MgSO4, 1.8 mM CaCl2, 11 mM Glucose, pH 7.4). One mL of buffer with or without compounds to be tested was then added to each well. After incubation for 2 min, the assay buffer was collected for measurements of ^86Rb^+ released from the cells. Cells were then lysed by adding 1 mL of 100 mM NaOH to each well, and the lysate was collected for determination of the amount of ^86Rb^+ that was in the cells at the end of the efflux assay. Radioactivity of assay samples and lysates was measured by liquid scintillation counting. Total loading (cpm) was calculated as the sum of the assay sample and the lysate of each well. The amount of ^86Rb^+ efflux was expressed as a percentage of ^86Rb^+ loaded. […] For obtaining EC50 and Emax values, stimulation curves were constructed in which 8 different concentrations of a ligand were included in the assay. […] EC50, Emax and IC50(10′) values were determined by nonlinear least-squares regression analyses (GraphPad, San Diego, Calif.).
(§4) Functional properties of the new ligands were determined by ^86Rb^1 efflux assays in cells expressing α3β4 and α4β2 nAChR subtypes. Functional activity of each new ligand was measured in terms of its agonism, antagonism and desensitization ability.
(§5) Agonist activity of each of the ligands was tested at eight concentrations. […] The full concentration-effect curves generated potency (EC50) and efficacy (Emax) of each ligand.
(§6) Though the ^86Rb^+ efflux assays were the main methodology used to determine functional properties, whole-cell current measurements were also used to verify the key experiments.

human α4β2 nAChRs = target: T3, human α4β2 nAChRs (Homo sapiens, UniProt P17787+P43681); test: 86Rb+ efflux assay in stably transfected cells; assay type: cell-based
T3 construct: expressed in transfected cells
Procedure: as §2, §3, §4, §5, §6

[2] = 10 μM, 41 targets, primary binding assays

T3 sequence (P43681 29-627 limits assumed): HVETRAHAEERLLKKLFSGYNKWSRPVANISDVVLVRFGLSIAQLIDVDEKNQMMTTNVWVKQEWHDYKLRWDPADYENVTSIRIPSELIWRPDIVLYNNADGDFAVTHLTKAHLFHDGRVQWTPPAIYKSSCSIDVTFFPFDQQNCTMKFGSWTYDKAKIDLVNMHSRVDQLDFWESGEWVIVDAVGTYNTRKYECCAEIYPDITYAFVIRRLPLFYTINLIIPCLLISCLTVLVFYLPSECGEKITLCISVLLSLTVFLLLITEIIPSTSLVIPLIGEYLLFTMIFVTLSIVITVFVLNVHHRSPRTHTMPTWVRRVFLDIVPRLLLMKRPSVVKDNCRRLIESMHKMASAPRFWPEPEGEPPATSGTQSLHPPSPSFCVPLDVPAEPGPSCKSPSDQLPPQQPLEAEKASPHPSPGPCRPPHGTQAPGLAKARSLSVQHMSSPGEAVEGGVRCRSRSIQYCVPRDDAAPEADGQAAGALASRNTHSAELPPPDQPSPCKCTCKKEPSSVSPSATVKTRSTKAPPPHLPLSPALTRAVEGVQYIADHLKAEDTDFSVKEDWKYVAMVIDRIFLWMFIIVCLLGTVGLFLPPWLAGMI
T3 sequence (P17787 26-502): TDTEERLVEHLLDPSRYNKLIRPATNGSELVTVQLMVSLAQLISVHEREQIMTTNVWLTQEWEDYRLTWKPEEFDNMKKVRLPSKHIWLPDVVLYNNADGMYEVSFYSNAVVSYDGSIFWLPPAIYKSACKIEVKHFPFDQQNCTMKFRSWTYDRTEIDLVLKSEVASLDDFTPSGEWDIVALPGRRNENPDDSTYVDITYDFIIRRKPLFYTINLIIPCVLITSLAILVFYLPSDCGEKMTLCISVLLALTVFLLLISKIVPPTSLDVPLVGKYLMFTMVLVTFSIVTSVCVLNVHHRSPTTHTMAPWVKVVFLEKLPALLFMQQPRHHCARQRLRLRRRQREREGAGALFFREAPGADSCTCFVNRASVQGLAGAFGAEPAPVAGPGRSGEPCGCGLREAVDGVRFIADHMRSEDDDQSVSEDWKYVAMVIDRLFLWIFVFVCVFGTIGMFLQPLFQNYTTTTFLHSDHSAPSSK
T2 sequence (P04757 26-499): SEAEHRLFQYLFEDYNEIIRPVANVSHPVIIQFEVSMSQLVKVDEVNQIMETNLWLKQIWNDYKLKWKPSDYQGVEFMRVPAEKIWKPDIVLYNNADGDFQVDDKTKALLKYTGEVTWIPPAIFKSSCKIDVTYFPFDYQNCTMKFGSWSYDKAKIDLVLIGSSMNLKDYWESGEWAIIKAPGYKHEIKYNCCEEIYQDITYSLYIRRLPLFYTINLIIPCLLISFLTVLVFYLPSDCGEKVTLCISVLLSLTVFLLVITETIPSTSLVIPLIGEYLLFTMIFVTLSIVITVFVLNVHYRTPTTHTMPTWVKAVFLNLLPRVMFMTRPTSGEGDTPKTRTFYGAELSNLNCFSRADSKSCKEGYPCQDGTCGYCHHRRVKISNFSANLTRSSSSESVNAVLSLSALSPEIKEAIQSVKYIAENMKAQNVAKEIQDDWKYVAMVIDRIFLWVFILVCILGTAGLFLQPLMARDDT
T2 sequence (P12392 21-495): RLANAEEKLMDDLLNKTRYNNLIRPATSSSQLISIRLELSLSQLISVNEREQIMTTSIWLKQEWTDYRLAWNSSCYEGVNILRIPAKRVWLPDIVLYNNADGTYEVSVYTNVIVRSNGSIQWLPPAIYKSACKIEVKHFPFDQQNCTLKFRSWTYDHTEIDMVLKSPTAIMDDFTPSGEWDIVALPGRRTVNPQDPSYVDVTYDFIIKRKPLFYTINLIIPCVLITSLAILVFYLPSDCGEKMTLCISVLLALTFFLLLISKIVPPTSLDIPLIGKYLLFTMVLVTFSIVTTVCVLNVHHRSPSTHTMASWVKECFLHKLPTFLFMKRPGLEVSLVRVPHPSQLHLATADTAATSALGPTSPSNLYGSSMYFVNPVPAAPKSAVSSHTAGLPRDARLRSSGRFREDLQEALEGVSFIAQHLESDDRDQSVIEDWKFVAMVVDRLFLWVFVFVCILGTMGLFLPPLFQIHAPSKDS

C(#Cc1cncc(OC[C@@H]2CCN2)c1)c1ccccc1 [VMY-2-95, (S)-3-(azetidin-2-ylmethoxy)-5-(phenylethynyl)pyridine]
primary binding result at 5-HT3 receptors (5-HT3 receptors): not a “hit” | number of targets "hit" (more than 50% inhibition of binding) [1, 2]: 9 | number of targets "miss" (less than 50% inhibition of binding) [1, 2]: 32 | binding affinity for α4β2 nAChRs relative to the 9 hit targets ([1]; Ki from secondary binding assays): at least 3,000 times | agonist activity at α3β4 nAChRs (rat α3β4 nAChRs): did not show any detectable agonist activity; also recorded: does not show agonist activity | EC50 (human α4β2 nAChRs): 0.0086 µM | agonist activity at α4β2 receptors (human α4β2 nAChRs; 86Rb+ efflux, human α4β2): clear agonist activity | IC50 (human α4β2 nAChRs; 10 min pre-treatment before 100 μM (−)-nicotine, read-out: IC50(10′) α4β2 (desensitization potency)): 0.016 µM | inhibition of nicotine activation of α4β2 receptors (human α4β2 nAChRs; preincubated with the cells for 10 min): inhibited
